According to publication PMC9176662, “Design, synthesis, molecular modeling and biological evaluation of novel Benzoxazole-Benzamide conjugates via a 2-Thioacetamido linker as potential anti-proliferative agents, VEGFR-2 inhibitors and apoptotic inducers” (Journal of Enzyme Inhibition and Medicinal Chemistry, 2022):

Key:
[1] = test system: MCF-7 cells; experiment: Anti-proliferative activity, SRB assay, MCF-7; format: cell-based, human; settings: for IC50: Homo sapiens, SRB assay, 72 h exposure, mean ± SD of three separate experiments; for MCF-7 SI (selectivity index): ratio of IC50 for normal cells (WI-38) to IC50 for MCF-7
From the text: (§1) Several of these derivatives were reported as acting as competitive inhibitors of different tyrosine kinases, with potent cytotoxic activity against various cell lines[58]^,[59]. […] Thus, in this study a novel series of benzoxazole-benzamide conjugates was initially evaluated for their potential anti-cancer activity against colon cancer cell line (HCT-116), breast cancer cell line (MCF-7) and normal human fibroblasts (WI-38), using the Sulforhodamine B colorimetric (SRB) assay.
(§2) 2.1. Anti-proliferative activity against HCT-116 and MCF-7 human cancer cells lines.
(§3) The sulforhodamine B (SRB) assays were performed according to Skehan et al..
(§4) Briefly, exponentially growing cells were trypsinized, counted and seeded at the appropriate densities (5000 cells/100 μL/ well) into 96-well microtiter plates. Cells were incubated in a humidified atmosphere at 37 °C for 24 h. Then, the cells were exposed to the tested compounds at the desired concentrations (0.01, 0.1, 1, 10, and 100 μM) or to 1% dimethyl sulfoxide (DMSO) for 72 h. At the end of the treatment period, the media were removed, and the cells were fixed with 10% trichloroacetic acid at 4 °C for 1 h. Following, the cells were washed with tap water four times and incubated with SRB 0.4% for 30 min. Excess dye was removed by washing repeatedly with 1% (vol/vol) acetic acid. The protein-bound dye was dissolved in 10 mM Tris base solution for (optical density) OD determination at 510 nm using a Spectra Max plus Microplate Reader (Molecular Devices, CA). Cell viability was expressed relative to the untreated control cells. […]

[2] = test system: HCT-116 cells; experiment: Anti-proliferative activity, SRB assay, HCT-116; format: cell-based, human; settings: for IC50: Homo sapiens, SRB assay, 72 h exposure, mean ± SD of three separate experiments; for HCT-116 SI (selectivity index): ratio of IC50 for normal cells (WI-38) to IC50 for HCT-116
From the text: as §1, §2, §3, §4

[3] = test system: WI-38 cells; experiment: Cytotoxicity against normal fibroblasts, SRB assay, WI-38; format: cell-based; settings: normal human fibroblasts, 72 h, mean ± SD of three separate experiments
From the text: as §1, §2, §3, §4

[4] = target: T1, VEGFR-2 Protein Kinase (Homo sapiens, UniProt P35968); experiment: VEGFR-2 inhibitory activity (HTScan VEGF Receptor-2 Kinase Assay Kit, ELISA); format: biochemical; settings: mean of three individual experiments
T1 construct: It includes active VEGFR-2 kinase; purchased HTScan VEGF Receptor-2 Kinase Assay Kit
T1 sequence (P35968 20-1356): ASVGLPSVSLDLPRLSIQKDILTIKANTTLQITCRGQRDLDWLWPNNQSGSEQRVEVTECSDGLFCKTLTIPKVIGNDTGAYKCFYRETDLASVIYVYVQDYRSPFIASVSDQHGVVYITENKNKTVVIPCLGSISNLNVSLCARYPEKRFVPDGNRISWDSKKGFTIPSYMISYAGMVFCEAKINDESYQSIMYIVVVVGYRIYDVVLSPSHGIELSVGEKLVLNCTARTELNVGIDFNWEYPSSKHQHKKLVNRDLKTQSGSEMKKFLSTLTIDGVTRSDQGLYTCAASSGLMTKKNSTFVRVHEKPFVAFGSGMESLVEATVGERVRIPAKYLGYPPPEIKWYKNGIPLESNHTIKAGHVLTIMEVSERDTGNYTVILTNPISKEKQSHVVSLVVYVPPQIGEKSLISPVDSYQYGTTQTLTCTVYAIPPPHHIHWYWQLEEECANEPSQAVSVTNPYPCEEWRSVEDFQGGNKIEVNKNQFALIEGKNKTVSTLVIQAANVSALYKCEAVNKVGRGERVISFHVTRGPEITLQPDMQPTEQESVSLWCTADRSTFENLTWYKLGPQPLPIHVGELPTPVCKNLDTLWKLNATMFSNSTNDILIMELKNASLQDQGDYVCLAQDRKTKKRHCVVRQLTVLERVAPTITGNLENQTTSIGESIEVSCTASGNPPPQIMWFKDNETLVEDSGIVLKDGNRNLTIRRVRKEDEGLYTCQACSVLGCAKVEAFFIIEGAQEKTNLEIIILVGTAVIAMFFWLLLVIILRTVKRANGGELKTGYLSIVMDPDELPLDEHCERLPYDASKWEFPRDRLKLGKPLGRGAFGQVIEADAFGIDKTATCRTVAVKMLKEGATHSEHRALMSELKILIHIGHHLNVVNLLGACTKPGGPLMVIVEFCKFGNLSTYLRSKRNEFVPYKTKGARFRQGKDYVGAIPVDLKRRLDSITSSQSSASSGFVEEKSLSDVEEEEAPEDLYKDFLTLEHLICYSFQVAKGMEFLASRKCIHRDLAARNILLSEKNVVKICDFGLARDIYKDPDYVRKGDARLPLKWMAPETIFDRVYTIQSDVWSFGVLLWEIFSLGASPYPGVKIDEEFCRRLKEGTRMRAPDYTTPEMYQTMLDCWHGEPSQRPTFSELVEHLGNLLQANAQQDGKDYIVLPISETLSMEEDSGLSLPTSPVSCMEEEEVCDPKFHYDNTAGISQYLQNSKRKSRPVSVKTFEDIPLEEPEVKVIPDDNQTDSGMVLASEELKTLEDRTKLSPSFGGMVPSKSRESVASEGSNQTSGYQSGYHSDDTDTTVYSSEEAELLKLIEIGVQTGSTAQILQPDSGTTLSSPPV
Procedure: 2.2. VEGFR-2 Inhibitory activity
VEGFR-2 ELISA (Enzyme-Linked Immunosorbent Assay) kits (HTScan® VEGF Receptor-2 […]
phospho-tyrosine antibody) for detection of the phosphorylated form of the substrate peptide).
On a 96-well plate, a particular VEGFR-2 antibody was seeded and 100 μL of the normal solution or the tested compound tested was applied, incubated at room temperature for 2.5 h and washed. Then, 100 μL of the prepared biotin antibody was added, incubated for an additional 1 h at room temperature and washed. Following, 100 μL of streptavidin solution was added at room temperature, incubated for 45 minutes and then, 100 μL of TMB Substrate solution was applied and incubated at room temperature for 30 minutes. Finally, 50 μL stop solution was added and the absorption was measured at 450 nm instantly. The standard curve, the X -axis concentrations, and the Y-axis absorbance were drawn. […]

| melting point [°C] | IC50 ([1]; MCF7, 72 h) [µM] | IC50 ([2]; HCT-116, 72 h) [µM] | IC50 [4] [nM] | Structure (SMILES) | IC50 ([1]; MCF7) [µM] | IC50 ([2]; HCT-116) [µM] | IC50 [3] [µM] | MCF-7 SI (selectivity index) [1] | HCT-116 SI (selectivity index) [2] |
| --- | --- | --- | --- | --- | --- | --- | --- | --- | --- |
| – | – | – | – | CNC(=O)c1cc(Oc2ccc(NC(=O)Nc3ccc(Cl)c(C(F)(F)F)c3)cc2)ccn1 [Sorafenib, reference compound] | 10.5 ± 0.014 | 11.6 ± 0.012 | – | – | – |
| 240 to 242 | 19.1 ± 0.006 | 30.7 ± 0.011 | – | Cc1ccc2oc(SCC(=O)Nc3ccc(C(=O)Nc4ccccc4)cc3)nc2c1 [Compound 6] | – | – | 124.6 ± 0.7 | 6.5 | 4.0 |
| 266 to 268 | 9.4 ± 0.016 | 10.4 ± 0.01 | 385 ± 5 | COc1ccc(NC(=O)c2ccc(NC(=O)CSc3nc4cc(Cl)ccc4o3)cc2)cc1 [Compound 12] | – | – | 126.2 ± 0.75 | 13.4 | 12.1 |
| 250 to 252 | 9.5 ± 0.009 | 9.7 ± 0.013 | – | Cc1ccc2oc(SCC(=O)Nc3ccc(C(=O)NNC(=O)c4ccccc4)cc3)nc2c1 [Compound 14] | – | – | 96.5 ± 0.65 | 10.1 | 9.9 |
| 250 to 252 | 11.7 ± 0.014 | 18.5 ± 0.014 | – | O=C(CSc1nc2ccccc2o1)Nc1ccc(C(=O)Nc2ccccc2)cc1 [Compound 2] | – | – | 56.7 ± 0.36 | 4.8 | 3.0 |
| 256 to 258 | 12.4 ± 0.007 | 20.9 ± 0.025 | – | Cc1ccc2oc(SCC(=O)Nc3ccc(C(=O)NC4CCCCC4)cc3)nc2c1 [Compound 5] | – | – | 85.4 ± 0.55 | 6.9 | 4.0 |
| 245 to 247 | 16.1 ± 0.011 | 16.7 ± 0.012 | 704 ± 9 | O=C(CSc1nc2cc(Cl)ccc2o1)Nc1ccc(C(=O)Nc2ccccc2)cc1 [Compound 10] | – | – | 125.5 ± 0.72 | 7.8 | 7.5 |
| 270 to 272 | 9 ± 0.005 | 9.1 ± 0.005 | – | O=C(CSc1nc2ccccc2o1)Nc1ccc(C(=O)NNC(=O)c2ccccc2)cc1 [Compound 13] | – | – | 91.3 ± 0.6 | 10.1 | 10.0 |
| 238 to 240 | 22.7 ± 0.008 | 24.2 ± 0.019 | – | O=C(CSc1nc2ccccc2o1)Nc1ccc(C(=O)Nc2ccc(Cl)cc2)cc1 [Compound 3] | – | – | 59.3 ± 0.45 | 2.6 | 2.4 |
| 260 to 262 | 12.3 ± 0.008 | 17.1 ± 0.008 | 649 ± 8 | O=C(CSc1nc2cc(Cl)ccc2o1)Nc1ccc(C(=O)NC2CCCCC2)cc1 [Compound 9] | – | – | 74.6 ± 0.53 | 6.0 | 4.4 |
| 277 to 279 | 15.3 ± 0.01 | 12.9 ± 0.014 | 597 ± 7 | O=C(CSc1nc2cc(Cl)ccc2o1)Nc1ccc(C(=O)NNC(=O)c2ccccc2)cc1 [Compound 15] | – | – | 131.5 ± 0.8 | 8.6 | 10.2 |
| 265 to 267 | 24 ± 0.011 | 32 ± 0.002 | – | Cc1ccc2oc(SCC(=O)Nc3ccc(C(=O)Nc4ccc(Cl)cc4)cc3)nc2c1 [Compound 7] | – | – | 128.2 ± 0.75 | 5.3 | 4.0 |
| 258 to 260 | 22.3 ± 0.004 | 28.8 ± 0.01 | – | COc1ccc(NC(=O)c2ccc(NC(=O)CSc3nc4cc(C)ccc4o3)cc2)cc1 [Compound 8] | – | – | 135.4 ± 0.85 | 6.0 | 4.7 |
| 260 to 262 | 23.6 ± 0.015 | 23.2 ± 0.012 | – | COc1ccc(NC(=O)c2ccc(NC(=O)CSc3nc4ccccc4o3)cc2)cc1 [Compound 4] | – | – | 51.5 ± 0.4 | 2.2 | 2.2 |
